IC50 data for 41 compounds are collected here from patent US10485800B2, “Mixed lineage kinase inhibitors for HIV/AIDS therapies” (UNIVERSITY OF ROCHESTER, priority 2012, dated 2019).

As a reminder, the IC50 is the concentration needed to halve the response being measured.

Counter-ions that a name gives are not always drawn.

For the first assay, the target named is MLK3 (Homo sapiens (Human), UniProt Q16584). As to the kind of experiment: Radiometric filter plate MLK3 assay. The class given is biochemical. As to conditions: 2 μM cold ATP (Km), 1 μM inactive MKK7b, twenty minute incubation; read-out: MK3 IC50. As to the method: After a twenty minute incubation, the reactions were washed through filter plates and read on a scintillation counter. Results are shown in Table 9 below, in which +++ indicates ≤0.1 μM, ++ indicates >0.1 μM and ≤1 μM, and + indicates >1 μM.
Chain of MLK3 (Q16584 whole entry): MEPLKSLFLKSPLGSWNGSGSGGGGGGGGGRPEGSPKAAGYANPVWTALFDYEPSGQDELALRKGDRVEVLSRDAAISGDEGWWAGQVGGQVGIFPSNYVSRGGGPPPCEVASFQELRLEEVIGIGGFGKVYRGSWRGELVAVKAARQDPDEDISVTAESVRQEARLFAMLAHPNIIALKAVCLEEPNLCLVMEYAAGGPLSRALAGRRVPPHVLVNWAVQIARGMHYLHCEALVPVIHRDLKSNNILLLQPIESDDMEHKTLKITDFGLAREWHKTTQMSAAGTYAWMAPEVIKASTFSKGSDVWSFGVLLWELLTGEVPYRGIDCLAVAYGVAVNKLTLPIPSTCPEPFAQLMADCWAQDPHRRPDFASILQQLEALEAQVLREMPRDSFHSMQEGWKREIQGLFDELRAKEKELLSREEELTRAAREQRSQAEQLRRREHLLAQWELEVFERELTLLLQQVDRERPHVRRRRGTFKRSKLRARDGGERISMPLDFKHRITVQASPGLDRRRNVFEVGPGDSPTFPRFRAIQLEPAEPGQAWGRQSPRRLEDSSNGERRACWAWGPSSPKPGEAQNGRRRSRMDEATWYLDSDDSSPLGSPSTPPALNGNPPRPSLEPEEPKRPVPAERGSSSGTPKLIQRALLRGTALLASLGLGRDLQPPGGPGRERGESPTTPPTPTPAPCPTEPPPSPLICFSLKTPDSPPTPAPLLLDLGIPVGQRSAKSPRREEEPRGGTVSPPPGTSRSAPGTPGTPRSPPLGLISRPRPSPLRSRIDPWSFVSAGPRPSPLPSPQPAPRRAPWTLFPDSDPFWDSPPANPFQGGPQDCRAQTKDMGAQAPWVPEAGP
For the compound `COc1cc(-c2cnc3[nH]c(=O)n(C4CCc5ccccc54)c3n2)cc(OC)c1OC` (centres unmarked) [Example 101, 1-(2,3-dihydro-1H-inden-1-yl)-6-(3,4,5-trimethoxyphenyl)-1H-imidazo[4,5-b]pyrazin-2(3H)-one], the IC50 was above 1000 nM.
On the same count and under the same terms, under `CC(C)(C)OC(=O)N1CCN(C(=O)c2ccc(-c3cnc4[nH]cc(-c5ccc(C(N)=O)cc5)c4c3)cc2)CC1` [Example 148, 4-{4-[3-(4-carbamoyl-phenyl)-1H-pyrrolo[2,3-b]pyridin-5-yl]-benzoyl}-piperazine-1-carboxylic acid tert-butyl ester] stands below 100 nM; under `O=c1[nH]c2ncc(-c3ccncc3)nc2n1CC1CC1` [Example 82, 1-(cyclopropylmethyl)-6-(pyridin-4-yl)-1H-imidazo[4,5-b]pyrazin-2(3H)-one], above 1000 nM; under `COc1cc(-c2nc3c(nc2Cl)[nH]c(=O)n3CC2CC2)cc(OC)c1OC` [Example 119, 5-chloro-1-(cyclopropylmethyl)-6-(3,4,5-trimethoxyphenyl)-1H-imidazo[4,5-b]pyrazin-2(3H)-one], above 1000 nM.
Turning to `COCC(=O)N1CCN(Cc2ccc(-c3cnc4[nH]cc(-c5ccc6[nH]ccc6c5)c4c3)cc2)CC1` [Example 198], the IC50 is below 100 nM.
The same measure, in the same setting: under `Cc1cc2cc(-n3c(=O)[nH]c4ncc(-c5cc(Cl)cc(Cl)c5)nc43)ccc2[nH]1` [Example 73, 6-(3,5-dichlorophenyl)-1-(2-methyl-1H-indol-5-yl)-1H-imidazo[4,5-b]pyrazin-2(3H)-one] stands above 1000 nM.
Same read-out and setting: under `CCOC(=O)N1CCN(Cc2ccc(-c3cnc4[nH]cc(-c5ccc6[nH]ccc6c5)c4c3)cc2)CC1` [Example 193] stands below 100 nM.
As to `CS(=O)(=O)Nc1ccc(-c2cnc3[nH]cc(-c4ccc5[nH]ccc5c4)c3c2)cc1` [Example 11, N-(4-(3-(1H-indol-5-yl)-1H-pyrrolo[2,3-b]pyridin-5-yl)phenyl)methanesulfonamide], the IC50 was below 100 nM.
Still for that read-out and setting: under `Cc1cc(C)cc(-c2cnc3[nH]c(=O)n(-c4ccc5scnc5c4)c3n2)c1` [Example 99, 1-(benzo[d]thiazol-5-yl)-6-(3,5-dimethylphenyl)-1H-imidazo[4,5-b]pyrazin-2(3H)-one] stands above 1000 nM; under `Nc1ccc(-c2cnc3[nH]cc(-c4ccc(F)c(Cl)c4)c3c2)cn1` [Example 29, 5-(3-(3-chloro-4-fluorophenyl)-1H-pyrrolo[2,3-b]pyridin-5-yl)pyridin-2-amine], above 1000 nM.
Still for that read-out and setting: the value for `COc1ccc(-n2c(=O)[nH]c3ncc(-c4ccc(OC)c(OC)c4)nc32)cc1` [Example 69, 6-(3,4-dimethoxyphenyl)-1-(4-methoxyphenyl)-1H-imidazo[4,5-b]pyrazin-2(3H)-one] was above 1000 nM.
Take `COc1cc(-c2cnc3[nH]cc(-c4ccc5c(ccn5C)c4)c3c2)cc(OC)c1OC` [Example 24, 3-(1-methyl-1H-indol-5-yl)-5-(3,4,5-trimethoxyphenyl)-1H-pyrrolo[2,3-b]pyridine]: the IC50 is below 100 nM.
Consider `CN1CCN(Cc2ccc(-c3c[nH]c4ncc(-c5ccc(C(N)=O)cc5)cc34)cc2)CC1` [Example 162, 4-{3-[4-(4-methyl-piperazin-1-ylmethyl)-phenyl]-1H-pyrrolo[2,3-b]pyridin-5-yl}-benzamide], for which the 50% inhibitory concentration (IC50) was below 100 nM.
The same measure, in the same setting: the value for `COc1cc(-c2cnc3[nH]c(=O)n(C4Cc5ccccc5C4)c3n2)cc(OC)c1OC` [Example 110, 1-(2,3-dihydro-1H-inden-2-yl)-6-(3,4,5-trimethoxyphenyl)-1H-imidazo[4,5-b]pyrazin-2(3H)-one] was below 100 nM.
Take `COc1cc(-c2cnc3[nH]c(=O)n(CC4CC4)c3c2)cc(OC)c1OC` [Example 125, 1-(cyclopropylmethyl)-6-(3,4,5-trimethoxyphenyl)-1H-imidazo[4,5-b]pyridin-2(3H)-one]: the IC50 is above 1000 nM.
Regarding `CC(=O)N1CCN(C(=O)c2ccc(-c3cnc4[nH]cc(-c5ccc6[nH]ccc6c5)c4c3)cc2)CC1` [Example 146, 1-(4-{4-[3-(1H-indol-5-yl)-1H-pyrrolo[2,3-b]pyridin-5-yl]-benzoyl}-piperazin-1-yl)-ethanone], the IC50 is below 100 nM.
The same measure, in the same setting: under `CC(C)(C)CC(=O)N1CCN(Cc2ccc(-c3cnc4[nH]cc(-c5ccc6[nH]ccc6c5)c4c3)cc2)CC1` [Example 192] stands below 100 nM; under `CN1CCN(Cc2cccc(-c3cnc4[nH]cc(-c5ccc6[nH]ccc6c5)c4c3)c2)CC1=O` [Example 143, 4-{3-[3-(1H-indol-5-yl)-1H-pyrrolo[2,3-b]pyridin-5-yl]-benzyl}-1-methyl-piperazin-2-one], below 100 nM.
Consider `O=c1[nH]c2ncc(-c3cc(F)cc(F)c3)nc2n1-c1ccc2[nH]ccc2c1` [Example 61, 6-(3,5-difluorophenyl)-1-(1H-indol-5-yl)-1H-imidazo[4,5-b]pyrazin-2(3H)-one], for which the 50% inhibitory concentration (IC50) was above 1000 nM.
With `COc1cc(-c2cnc3[nH]c(=O)n(-c4ccc5[nH]cnc5c4)c3n2)cc(OC)c1OC` [Example 102, 1-(1H-benzo[d]imidazol-5-yl)-6-(3,4,5-trimethoxyphenyl)-1H-imidazo[4,5-b]pyrazin-2(3H)-one], the IC50 was below 100 nM.
Same read-out and setting: under `NC(=O)c1ccc(-c2c[nH]c3ncc(-c4ccc(C(=O)N5CCNCC5)cc4)cc23)cc1` [Example 149, 4-{5-[4-(piperazine-1-carbonyl)-phenyl]-1H-pyrrolo[2,3-b]pyridin-3-yl}-benzamide, hydrochloride salt] stands below 100 nM.
As to `COc1cc(-c2cnc3c(c2)C(Cc2ccccc2)C(=O)N3)cc(OC)c1OC` (centres unmarked) [Example 137, 3-benzyl-5-(3,4,5-trimethoxy-phenyl)-1,3-dihydro-pyrrolo[2,3-b]pyridin-2-one], the IC50 is above 1000 nM.
As for `COc1ccc(-c2cnc3[nH]c(=O)n(C4CCCC4)c3n2)cc1OC` [Example 75, 1-cyclopentyl-6-(3,4-dimethoxyphenyl)-1H-imidazo[4,5-b]pyrazin-2(3H)-one], the IC50 is above 1000 nM.
The same measure, in the same setting: under `COc1cc(-c2cnc3c(c2)C(=Cc2cccc(C(N)=O)c2)C(=O)N3)cc(OC)c1OC` [Example 132, 3-[2-oxo-5-(3,4,5-trimethoxy-phenyl)-1,2-dihydro-pyrrolo[2,3-b]pyridin-3-ylidenemethyl]-benzamide] stands above 1000 nM.
`CN1CCN(c2cc(-c3cnc4[nH]c(=O)n(-c5ccc6[nH]ccc6c5)c4n3)ccn2)CC1` [Example 66, 1-(1H-indol-5-yl)-6-(2-(4-methylpiperazin-1-yl)pyridin-4-yl)-1H-imidazo[4,5-b]pyrazin-2(3H)-one]: the IC50 is above 1000 nM.
For `Cc1cc2cc(-n3c(=O)[nH]c4ncc(-c5ccncc5)nc43)ccc2[nH]1` [Example 85, 1-(2-methyl-1H-indol-5-yl)-6-(pyridin-4-yl)-1H-imidazo[4,5-b]pyrazin-2(3H)-one], the IC50 is above 1000 nM.
Consider `COc1cc(-c2cnc3[nH]c(=O)n(-c4ccc5cc[nH]c5c4)c3n2)cc(OC)c1OC` [Example 113, 1-(1H-indol-6-yl)-6-(3,4,5-trimethoxyphenyl)-1H-imidazo[4,5-b]pyrazin-2(3H)-one], for which the IC50 was below 100 nM.
Still for that read-out and setting: under `COc1cc(-c2cnc3c(c2)C(=Cc2cccc(C#N)c2)C(=O)N3)cc(OC)c1OC` [Example 134, 3-[2-oxo-5-(3,4,5-trimethoxy-phenyl)-1,2-dihydro-pyrrolo[2,3-b]pyridin-3-ylidenemethyl]-benzonitrile] stands above 1000 nM; under `O=c1[nH]c2ncc(-c3cc(Cl)cc(Cl)c3)nc2n1CC1CC1` [Example 80, 1-(cyclopropylmethyl)-6-(3,5-dichlorophenyl)-1H-imidazo[4,5-b]pyrazin-2(3H)-one], above 1000 nM; under `COc1ccc(-c2cnc3[nH]cc(-c4ccc5[nH]ccc5c4)c3n2)cc1OC` [Example 37, 2-(3,4-dimethoxyphenyl)-7-(1H-indol-5-yl)-5H-pyrrolo[3,2-b]pyrazine], below 100 nM.
On the same count and under the same terms, under `CC(C)CC(=O)N1CCN(Cc2ccc(-c3cnc4[nH]cc(-c5ccc6[nH]ccc6c5)c4c3)cc2)CC1` [Example 204] stands below 100 nM; under `CN1CCN(c2cc(-c3cnc4[nH]cc(-c5ccc6[nH]ccc6c5)c4c3)ccn2)CC1` [Example 7, 3-(1H-indol-5-yl)-5-(2-(4-methylpiperazin-1-yl)pyridin-4-yl)-1H-pyrrolo[2,3-b]pyridine], below 100 nM.
On the same count and under the same terms, the value for `Cc1cc(C)cc(-c2cnc3[nH]c(=O)n(-c4ccc5cn[nH]c5c4)c3n2)c1` [Example 95, 6-(3,5-dimethylphenyl)-1-(1H-indazol-6-yl)-1H-imidazo[4,5-b]pyrazin-2(3H)-one] was above 1000 nM; that for `CN1CCN(Cc2ccc(-c3cnc4[nH]cc(-c5ccc6ncccc6c5)c4c3)cc2)CC1` [Example 180] was below 100 nM; that for `CN1CCN(Cc2ccc(-c3cnc4[nH]cc(-c5ccc6nccc(O)c6c5)c4c3)cc2)CC1` [Example 177] was below 100 nM.
Turning to `COc1cc(-c2cnc3[nH]c(=O)n(-c4ccc5[nH]ccc5c4)c3n2)ccc1O` [Example 55, 6-(4-hydroxy-3-methoxyphenyl)-1-(1H-indol-5-yl)-1H-imidazo[4,5-b]pyrazin-2(3H)-one], the IC50 was below 100 nM.

Still in this assay, the particulars now being: read-out: MK3 IC50.
For the compound `[2H]c1cc2cc(-c3c[nH]c4ncc(-c5ccc(CN6CCN(C)CC6)cc5)cc34)ccc2[nH]1` [Example 181], the IC50 was below 100 nM.
As to `CN1CCN(Cc2ccc(-c3cnc4[nH]cc(-c5ccc6c(c5)CC(=O)N6)c4c3)cc2)CC1` [Example 174], the IC50 was 100 to 1000 nM.
Same read-out and setting: the value for `CNC(=O)c1ccc(-c2c[nH]c3ncc(-c4cc(OC)c(OC)c(OC)c4)cc23)cc1` [Example 164, N-methyl-4-[5-(3,4,5-trimethoxy-phenyl)-1H-pyrrolo[2,3-b]pyridin-3-yl]-benzamide] was above 1000 nM; that for `CN1CCN(Cc2ccc(-c3cnc4[nH]cc(-c5ccc6c(O)ccnc6c5)c4c3)cc2)CC1` [Example 178] was 100 to 1000 nM.
On to `CN1CCN(C(=O)c2cccc(-c3cnc4[nH]cc(-c5ccc6[nH]ccc6c5)c4c3)c2)CC1` [Example 147, {3-[3-(1H-indol-5-yl)-1H-pyrrolo[2,3-b]pyridin-5-yl]-phenyl}-(4-methyl-piperazin-1-yl)-methanone], for which the IC50 is below 100 nM.
